The values that follow come from patent US20140315876A1, “BETA-LACTAMASE INHIBITORS” (priority 2013, published 2014).

In assay [1] the test system is bacterial strains that express the class D cephalosporinase OXA-15. Description: Synergy MIC / standard BLI potentiation MIC assay, strains expressing OXA-15. Format: cell-based, E. coli. The settings on record: in the presence of a β-lactam; comparator Avibactam (comparator compound CCC). The procedure: (§1) The experimental protocol was performed according to Clinical and Laboratory Standards Institute (CLSI) guidelines with modifications as described below (CLSI guidelines can be derived from the CLSI document M07-A9 published in January 2012: “Methods for Dilution Antimicrobial Susceptibility Tests for Bacteria That Grow Aerobically; Approved Standard-Ninth Edition”).
(§2) To prepare for MIC testing, frozen glycerol stocks of clinical isolates (Klebsiella pneumoniae, Eschericia coli, Enterobacter spp, Citrobacter spp, or Pseudomonas aeruginosa) were used to streak for isolated colonies on rich, non-selective, tryptic soy agar containing 5% sheep's blood (TSAB). Frozen glycerol stocks of laboratory engineered, isogenic E. coli strains, which contain cloned β-lactamase expressing plasmids were used to streak for isolated colonies on rich, selective LB agar supplemented with 25 μg/mL tetracycline to maintain the plasmid. All strains were incubated at 37° C. for 18-24 hrs.
(§3) On the day of testing, primary cultures were started by scraping off 5-10 colonies from the TSAB plates containing clinical strains or the tetracycline supplemented LB plates containing engineered strains. The clinical strain material was suspended in ˜5 mL of cation adjusted Mueller Hinton Broth (CAMHB) in 14 mL culture tubes. The engineered strain material was suspended in CAMHB (supplemented with 25 μg/mL tetracycline) in 14 mL culture tubes. All strains were incubated at 37° C. with aeration (200 rpm) for ˜2 hrs until the optical density at 600 nm (OD600) was ≧0.1.
(§4) The two compound components of the assay were each diluted in CAMHB and added to the 96-well broth microdilution assay plates. 50 μL of the β-lactam was added to each well of the assay plate in 2-fold dilutions with final concentrations ranging from 128 to 0.13 μg/mL. 25 μL of the BLI compound was added to all wells in the broth microdilution plates at a final concentration of 4 μg/mL. Inoculum cultures were prepared by standardizing the primary cultures to OD600=0.1 and then adding 20 μL of the adjusted primary culture per 1 mL CAMHB for clinical strains or CAMHB (supplemented with tetracycline at 100 μg/mL) for engineered strains, so that the final inoculum density was ˜10^5 colony forming units per milliliter. Diluted inoculum cultures were used to inoculate 25 μL per well in 96-well broth microdilution assay plates. The final volume of each well was 100 μL and contained a β-lactam at different concentrations, a BLI compound at 4 μg/mL concentration, the bacterial culture at an OD600 of approximately 0.001 and when necessary tetracycline at 25 μg/mL.
(§5) Plates were incubated for 18-20 hours at 37° C. with aeration (200 rpm). Following incubation, growth was confirmed visually placing plates over a viewing apparatus (stand with a mirror underneath) and then OD600 was measured using a SpectraMax 340PC384 plate reader (Molecular Devices, Sunnyvale, Calif.). Growth was defined as turbidity that could be detected with the naked eye or achieving minimum OD600 of 0.1. MIC values were defined as the lowest concentration producing no visible turbidity.
(§6) The synergy MIC (sMIC) assay determines the concentration of the BLI required to potentiate the activity of a fixed concentration of a β-lactam antibiotic against β-lactamase producing bacterial strains. The experimental protocol was performed according to Clinical and Laboratory Standards Institute (CLSI) guidelines with modifications as described below (CLSI guidelines can be derived from the CLSI document M07-A9 published in January 2012: “Methods for Dilution Antimicrobial Susceptibility Tests for Bacteria That Grow Aerobically; Approved Standard-Ninth Edition”). […]

Assay [2] concerns bacterial strains that express KPC β-lactamases. The experiment in a line: Synergy MIC / standard BLI potentiation MIC assay, strains expressing KPC β-lactamases. It is filed as cell-based. The settings on record: more active for at least one KPC strain and/or better spectrum of activity than Avibactam; in the presence of a β-lactam. The protocol:
as §1, §2, §3, §4, §5, §6

Structures are written as SMILES. Where a name gives a salt, the structure may show the parent alone.

On to `O=C1N2C[C@@H](CC[C@H]2c2nnco2)N1OS(=O)(=O)O` [Compound 701, (2S,5R)-2-(1,3,4-oxadiazol-2-yl)-7-oxo-1,6-diazabicyclo[3.2.1]octan-6-yl hydrogen sulfate], for which, in assay [1], the “activity against bacterial strains that express the class D cephalosporinase OXA-15, compared with Avibactam” value is recorded as “more active than Avibactam”. Also, the “activity and/or spectrum of activity against bacterial strains that express KPC β-lactamases, compared with Avibactam” value in assay [2] is recorded as “more active than Avibactam”.
Turning to `NCc1nnc([C@@H]2CC[C@@H]3CN2C(=O)N3OS(=O)(=O)O)o1` [Compound 702, (2S,5R)-2-(5-(aminomethyl)-1,3,4-oxadiazol-2-yl)-7-oxo-1,6-diazabicyclo[3.2.1]octan-6-yl hydrogen sulfate], the “activity against bacterial strains that express the class D cephalosporinase OXA-15, compared with Avibactam” value in assay [1] is recorded as “more active than Avibactam”. Besides, the “activity and/or spectrum of activity against bacterial strains that express KPC β-lactamases, compared with Avibactam” value in assay [2] is listed as “more active than Avibactam”.
As for `NCCc1nnc([C@@H]2CC[C@@H]3CN2C(=O)N3OS(=O)(=O)O)o1` [Compound 703, (2S,5R)-2-(5-(2-aminoethyl)-1,3,4-oxadiazol-2-yl)-7-oxo-1,6-diazabicyclo[3.2.1]octan-6-yl hydrogen sulfate], in assay [1], the “activity against bacterial strains that express the class D cephalosporinase OXA-15, compared with Avibactam” value is reported as “more active than Avibactam”. Besides, in assay [2], the “activity and/or spectrum of activity against bacterial strains that express KPC β-lactamases, compared with Avibactam” value was “more active than Avibactam”.
Take `N=C(N)NCCc1nnc([C@@H]2CC[C@@H]3CN2C(=O)N3OS(=O)(=O)O)o1` [Compound 705, (2S,5R)-2-(5-(2-guanidinoethyl)-1,3,4-oxadiazol-2-yl)-7-oxo-1,6-diazabicyclo[3.2.1]octan-6-yl hydrogen sulfate]: in assay [1], the “activity against bacterial strains that express the class D cephalosporinase OXA-15, compared with Avibactam” value is reported as “more active than Avibactam”. Further, in assay [2], the “activity and/or spectrum of activity against bacterial strains that express KPC β-lactamases, compared with Avibactam” value is listed as “more active than Avibactam”.
Turning to `NC(=O)c1nnc([C@@H]2CC[C@@H]3CN2C(=O)N3OS(=O)(=O)O)o1` [Compound 706, (2S,5R)-2-(5-carbamoyl-1,3,4-oxadiazol-2-yl)-7-oxo-1,6-diaza-bicyclo[3.2.1]octan-6-yl hydrogen sulfate], in assay [1], the “activity against bacterial strains that express the class D cephalosporinase OXA-15, compared with Avibactam” value is “more active than Avibactam”. For the same molecule, the “activity and/or spectrum of activity against bacterial strains that express KPC β-lactamases, compared with Avibactam” value in assay [2] is reported as “more active than Avibactam”.
With `O=C1N2C[C@@H](CC[C@H]2c2nnc(C3CNC3)o2)N1OS(=O)(=O)O` [Compound 708, (2S,5R)-2-(5-(azetidin-3-yl)-1,3,4-oxadiazol-2-yl)-7-oxo-1,6-diazabicyclo[3.2.1]octan-6-yl hydrogen sulfate], the “activity against bacterial strains that express the class D cephalosporinase OXA-15, compared with Avibactam” value in assay [1] was “more active than Avibactam”. For the same molecule, the “activity and/or spectrum of activity against bacterial strains that express KPC β-lactamases, compared with Avibactam” value in assay [2] was “more active than Avibactam”.
Consider `N=C(N)N1CC(c2nnc([C@@H]3CC[C@@H]4CN3C(=O)N4OS(=O)(=O)O)o2)C1` [Compound 709, (2S,5R)-2-(5-(1-carbamimidoylazetidin-3-yl)-1,3,4-oxadiazol-2-yl)-7-oxo-1,6-diazabicyclo[3.2.1]octan-6-yl hydrogen sulfate], for which the “activity against bacterial strains that express the class D cephalosporinase OXA-15, compared with Avibactam” value in assay [1] was “more active than Avibactam”. For the same molecule, the “activity and/or spectrum of activity against bacterial strains that express KPC β-lactamases, compared with Avibactam” value in assay [2] is recorded as “more active than Avibactam”.
In the case of `NC1CCN(CCc2nnc([C@@H]3CC[C@@H]4CN3C(=O)N4OS(=O)(=O)O)o2)CC1` [Compound 775, (2S,5R)-2-(5-(2-(4-aminopiperidin-1-yl)ethyl)-1,3,4-oxadiazol-2-yl)-7-oxo-1,6-diazabicyclo[3.2.1]octan-6-yl hydrogen sulfate], in assay [2], the “activity and/or spectrum of activity against bacterial strains that express KPC β-lactamases, compared with Avibactam” value is “more active than Avibactam”.
